Experimental data as given in patent US8921385B2, “5-substituted quinazolinone derivatives and compositions comprising and methods of using the same” (Celgene Corporation, priority 2006, dated 2014).
Where a name gives a salt, the structure may show the parent alone.

melting point	SMILES
256 °C (dec.)	Cc1nc2cccc(CN)c2c(=O)n1C1CCC(=O)NC1=O.Cl (centres unmarked)
256 to 258 °C	Cc1nc2cccc(NC(=O)CN(C)C)c2c(=O)n1C1CCC(=O)NC1=O (centres unmarked) (as salt: chloride) [Example 6.25, 2-Dimethylamino-N-[3-(2,6-Dioxo-Piperidin-3-yl)-2-Methyl-4-Oxo-3,4-Dihydro-Quinazolin-5-yl]-Acetamide Hydrogen Chloride]
292 to 294 °C	Cc1cccc2nc(C)n(C3CCC(=O)NC3=O)c(=O)c12 (centres unmarked) [Example 6.2, 3-(2,5-Dimethyl-4-Oxo-4H-Quinazolin-3-yl)-Piperidine-2,6-Dione]
282 to 284 °C	COCC(=O)Nc1cccc2nc(C)n(C3CCC(=O)NC3=O)c(=O)c12 (centres unmarked) [Example 6.20, N-[3-(2,6-Dioxo-Piperidin-3-yl)-2-Methyl-4-Oxo-3,4-Dihydro-Quinazolin-5-yl]-2-Methoxy-Acetamide]
320 to 322 °C	CC(=O)Nc1cccc2nc(C)n(C3CCC(=O)NC3=O)c(=O)c12 (centres unmarked) [Example 6.21, N-[3-(2,6-Dioxo-Piperidin-3-yl)-2-Methyl-4-Oxo-3,4-Dihydro-Quinazolin-5-yl]-Acetamide]
291 to 293 °C	CCOCC(=O)Nc1cccc2nc(C)n(C3CCC(=O)NC3=O)c(=O)c12 (centres unmarked) [Example 6.24, N-[3-(2,6-Dioxo-Piperidin-3-yl)-2-Methyl-4-Oxo-3,4-Dihydro-Quinazolin-5-yl]-2-Ethoxy-Acetamide]
275 to 277 °C	Cc1nc2cccc(NC(=O)CCl)c2c(=O)n1C1CCC(=O)NC1=O (centres unmarked) [Example 6.26, 2-Chloro-N-[3-(2,6-Dioxo-Piperidin-3-yl)-2-Methyl-4-Oxo-3,4-Dihydro-Quinazolin-5-yl]-Acetamide]
206 to 208 °C	Cc1nc2cccc(CNC(=O)OC(C)(C)C)c2c(=O)n1C1CCC(=O)NC1=O (centres unmarked) [Example 6.28, [3-(2,6-Dioxo-Piperidin-3-yl)-2-Methyl-4-Oxo-3,4-Dihydro-Quinazolin-5-ylmethyl]-Carbamic Acid Tert-Butyl Ester]
250 to 252 °C	CCCC(=O)NCc1cccc2nc(C)n(C3CCC(=O)NC3=O)c(=O)c12 (centres unmarked) [Example 6.31, N-[3-(2,6-Dioxo-Piperidin-3-yl)-2-Methyl-4-Oxo-3,4-Dihydro-Quinazolin-5-ylmethyl]-Butyramide]
208 to 210 °C	CCCCCCC(=O)NCc1cccc2nc(C)n(C3CCC(=O)NC3=O)c(=O)c12 (centres unmarked) [Example 6.32, Heptanoic Acid [3-(2,6-Dioxo-Piperidin-3-yl)-2-Methyl-4-Oxo-3,4-Dihydro-Quinazolin-5-ylmethyl]-Amide]
212 to 214 °C	Cc1nc2cccc(CNC(=O)CC(C)(C)C)c2c(=O)n1C1CCC(=O)NC1=O (centres unmarked) [Example 6.33, N-[3-(2,6-Dioxo-Piperidin-3-yl)-2-Methyl-4-Oxo-3,4-Dihydro-Quinazolin-5-ylmethyl]-3,3-Dimethyl-Butyramide]
275 °C (dec.)	Cc1nc2cccc(CNC(=O)CN(C)C)c2c(=O)n1C1CCC(=O)NC1=O (centres unmarked) [Example 6.35, 2-Dimethylamino-N-[3-(2,6-Dioxo-Piperidin-3-yl)-2-Methyl-4-Oxo-3,4-Dihydro-Quinazolin-5-ylmethyl]-Acetamide]
275 to 277 °C	Cc1nc2cccc(CNC(=O)Cc3ccccc3)c2c(=O)n1C1CCC(=O)NC1=O (centres unmarked) [Example 6.38, N-[3-(2,6-Dioxo-Piperidin-3-yl)-2-Methyl-4-Oxo-3,4-Dihydro-Quinazolin-5-ylmethyl]-2-Phenyl-Acetamide]
261 to 263 °C	Cc1nc2cccc(CNC(=O)c3ccccn3)c2c(=O)n1C1CCC(=O)NC1=O (centres unmarked) [Example 6.39, Pyridine-2-Carboxylic Acid [3-(2,6-Dioxo-Piperidin-3-yl)-2-Methyl-4-Oxo-3,4-Dihydro-Quinazolin-5-ylmethyl]-Amide]
285 °C (dec.)	Cc1nc2cccc(CNC(=O)Cc3ccc(Cl)cc3)c2c(=O)n1C1CCC(=O)NC1=O (centres unmarked) [Example 6.40, 2-(4-Chloro-Phenyl)-N-[3-(2,6-Dioxo-Piperidin-3-yl)-2-Methyl-4-Oxo-3,4-Dihydro-Quinazolin-5-ylmethyl]-Acetamide]
262 to 264 °C	Cc1nc2cccc(CNC(=O)Cc3ccc(Cl)c(Cl)c3)c2c(=O)n1C1CCC(=O)NC1=O (centres unmarked) [Example 6.42, 2-(3,4-Dichloro-Phenyl)-N-[3-(2,6-Dioxo-Piperidin-3-yl)-2-Methyl-4-Oxo-3,4-Dihydro-Quinazolin-5-ylmethyl]-Acetamide]
264 to 266 °C	Cc1ccc(CC(=O)NCc2cccc3nc(C)n(C4CCC(=O)NC4=O)c(=O)c23)cc1F (centres unmarked) [Example 6.44, N-[3-(2,6-Dioxo-Piperidin-3-yl)-2-Methyl-4-Oxo-3,4-Dihydro-Quinazolin-5-ylmethyl]-2-(3-Fluoro-4-Methyl-Phenyl)-Acetamide]
199 to 201 °C	Cc1nc2cccc(CNC(=O)Cc3ccc(C(F)(F)F)cc3)c2c(=O)n1C1CCC(=O)NC1=O (centres unmarked) [Example 6.45, N-[3-(2,6-Dioxo-Piperidin-3-yl)-2-Methyl-4-Oxo-3,4-Dihydro-Quinazolin-5-ylmethyl]-2-(4-Trifluoromethyl-Phenyl)-Acetamide]
241 to 243 °C	Cc1ccc(NC(=O)NCc2cccc3nc(C)n(C4CCC(=O)NC4=O)c(=O)c23)cc1C (centres unmarked) [Example 6.48, 1-(3,4-Dimethyl-Phenyl)-3-[3-(2,6-Dioxo-Piperidin-3-yl)-2-Methyl-4-Oxo-3,4-Dihydro-Quinazolin-5-ylmethyl]-Urea]
263 to 265 °C	Cc1cccc(C(=O)NCc2cccc3nc(C)n(C4CCC(=O)NC4=O)c(=O)c23)c1 (centres unmarked) [Example 6.50, N-[3-(2,6-Dioxo-Piperidin-3-yl)-2-Methyl-4-Oxo-3,4-Dihydro-Quinazolin-5-ylmethyl]-3-Methyl-Benzamide]
276 to 278 °C	Cc1nc2cccc(CNC(=O)c3ccc(Cl)cc3)c2c(=O)n1C1CCC(=O)NC1=O (centres unmarked) [Example 6.51, 4-Chloro-N-[3-(2,6-Dioxo-Piperidin-3-yl)-2-Methyl-4-Oxo-3,4-Dihydro-Quinazolin-5-ylmethyl]-Benzamide]

The next lines start with the compound.

SMILES	melting point
Cc1cccc2ncn(C3CCC(=O)NC3=O)c(=O)c12 (centres unmarked) [Example 6.1, 3-(5-Methyl-4-Oxo-4H-Quinazolin-3-yl)-Piperidine-2,6-Dione]	262 to 264 °C
Cc1cccc2nc(O)n(C3CCC(=O)NC3=O)c(=O)c12 (centres unmarked) [Example 6.5, 3-(2-Hydroxy-5-Methyl-4-Oxo-4H-Quinazolin-3-yl)-Piperidine-2,6-Dione]	373 to 375 °C
Cc1cccc2nc(C)n([C@@]3(C)CCC(=O)NC3=O)c(=O)c12 [Example 6.7, 3R-3-(2,5-Dimethyl-4-Oxo-4H-Quinazolin-3-yl)-3-Methyl-Piperidine-2,6-Dione]	298 to 301 °C
COc1cccc2nc(C)n(C3CCC(=O)NC3=O)c(=O)c12 (centres unmarked) [Example 6.8, 3-(5-Methoxy-2-Methyl-4-Oxo-4H-Quinazolin-3-yl)-Piperidine-2,6-Dione]	274 to 276 °C
Cc1nc2cccc(Cl)c2c(=O)n1C1CCC(=O)NC1=O (centres unmarked) [Example 6.10, 3-(5-Chloro-2-Methyl-4-Oxo-4H-Quinazolin-3-yl)-Piperidine-2,6-Dione]	315 °C (dec.)
Cc1nc2cccc(C(F)(F)F)c2c(=O)n1C1CCC(=O)NC1=O (centres unmarked) [Example 6.11, 3-(2-Methyl-4-Oxo-5-Trifluoromethyl-4H-Quinazolin-3-yl)-Piperidine-2,6-Dione]	268 to 270 °C
O=C1CCC(n2cnc3cccc(Cl)c3c2=O)C(=O)N1 (centres unmarked) [Example 6.12, 3-(5-Chloro-4-Oxo-4H-Quinazolin-3-yl)-Piperidine-2,6-Dione]	308 to 310 °C
CCc1nc2cccc(C)c2c(=O)n1C1CCC(=O)NC1=O (centres unmarked) [Example 6.13, 3-(2-Ethyl-5-Methyl-4-Oxo-4H-Quinazolin-3-yl)-Piperidine-2,6-Dione]	228 to 230 °C
CCCCc1nc2cccc(C)c2c(=O)n1C1CCC(=O)NC1=O (centres unmarked) [Example 6.14, 3-(2-Butyl-5-Methyl-4-Oxo-4H-Quinazolin-3-yl)-Piperidine-2,6-Dione]	190 to 192 °C
Cc1cccc2nc(C(F)(F)F)n(C3CCC(=O)NC3=O)c(=O)c12 (centres unmarked) [Example 6.15, 3-(5-Methyl-4-Oxo-2-Trifluoromethyl-4H-Quinazolin-3-yl)-Piperidine-2,6-Dione]	308 to 310 °C
Cc1cccc2nc(-c3ccccc3)n(C3CCC(=O)NC3=O)c(=O)c12 (centres unmarked) [Example 6.16, 3-(5-Methyl-4-Oxo-2-Phenyl-4H-Quinazolin-3-yl)-Piperidine-2,6-Dione]	298 to 300 °C
Cc1nc2cccc(N)c2c(=O)n1[C@]1(C)CCC(=O)NC1=O [Example 6.19, (R)-3-(5-Amino-2-Methyl-4-Oxoquinazolin-3(4H)-yl)-3-Methylpiperidine-2,6-Dione]	295 to 297 °C
CCCCCCC(=O)Nc1cccc2nc(C)n(C3CCC(=O)NC3=O)c(=O)c12 (centres unmarked) [Example 6.23, Heptanoic Acid [3-(2,6-Dioxo-Piperidin-3-yl)-2-Methyl-4-Oxo-3,4-Dihydro-Quinazolin-5-yl]-Amide]	230 to 232 °C
CCOC(=O)Nc1cccc2nc(C)n(C3CCC(=O)NC3=O)c(=O)c12 (centres unmarked) [Example 6.27, [3-(2,6-Dioxo-Piperidin-3-yl)-2-Methyl-4-Oxo-3,4-Dihydro-Quinazolin-5-yl]-Carbamic Acid Ethyl Ester]	284 to 286 °C (dec.)
Cc1nc2cccc(NC(=O)c3cccc(Cl)c3)c2c(=O)n1C1CCC(=O)NC1=O (centres unmarked) [Example 6.36, 3-Chloro-N-[3-(2,6-Dioxo-Piperidin-3-yl)-2-Methyl-4-Oxo-3,4-Dihydro-Quinazolin-5-yl]-Benzamide]	326 to 328 °C
Cc1nc2cccc(CNC(=O)Nc3ccc(Cl)cc3)c2c(=O)n1C1CCC(=O)NC1=O (centres unmarked) [Example 6.46, 1-(4-Chloro-Phenyl)-3-[3-(2,6-Dioxo-Piperidin-3-yl)-2-Methyl-4-Oxo-3,4-Dihydro-Quinazolin-5-ylmethyl]-Urea]	255 to 257 °C
Cc1ccc(NC(=O)NCc2cccc3nc(C)n(C4CCC(=O)NC4=O)c(=O)c23)cc1Cl (centres unmarked) [Example 6.47, 1-(3-Chloro-4-Methyl-Phenyl)-3-[3-(2,6-Dioxo-Piperidin-3-yl)-2-Methyl-4-Oxo-3,4-Dihydro-Quinazolin-5-ylmethyl]-Urea]	250 to 252 °C
